{"source": "patent US20230124862A1", "about": "“BISMUTH THIOL COMPOUNDS AND COMPOSITIONS AND METHODS OF TREATING MICROBIAL CO-INFECTIONS” (Microbion Corporation, priority 2020, published 2023)", "key": {"[1]": {"system": "B. cepcacia complex (not further speciated)", "assay": "microbe, parasite or virus in culture", "type": "cell-based, Burkholderia cepacia complex", "settings": "Burkholderia cepacia"}, "Candida spp.": {"system": "Candida spp.", "assay": "Broth microdilution MIC (Example 11)", "type": "cell-based, C. parapsilosis, C. albicans, C. glabrata, C. tropicalis"}, "[2]": {"system": "P. aeruginosa and A. baumannii", "assay": "Broth microdilution MIC (Example 11)", "type": "cell-based, Pseudomonas aeruginosa, Acinetobacter baumannii", "settings": "read-out: MIC values"}, "Klebsiella pneumoniae": {"system": "Klebsiella pneumoniae", "assay": "Broth microdilution MIC (Example 12)", "type": "cell-based"}, "[3]": {"system": "P. aeruginosa and A. baumannii", "settings": "P. aeruginosa (MMX 103), QC; cited from earlier work"}, "P. aeruginosa": {"system": "P. aeruginosa", "assay": "Broth microdilution MIC (Example 10)", "type": "cell-based, Pseudomonas aeruginosa", "settings": "initial MIC testing"}, "Pseudomonas aeruginosa": {"system": "Pseudomonas aeruginosa", "assay": "Broth microdilution MIC (Example 12)", "type": "cell-based"}}, "data": [{"molecule": "CC(S)C(C)S.[Bi]", "note": "(stereo not shown) [BisBDT, bismuth-2,3-butanedithiol]", "values": [{"measurement": "MIC", "setting": "[1]; strain BC 9", "value": 0.5, "unit": "µg/mL"}, {"measurement": "MIC", "setting": "[1]; strain PC 213", "value": 1, "unit": "µg/mL"}, {"measurement": "MIC", "setting": "Candida spp.; 24 h, C. albicans MMX 7039, Sensitive, incubation 24 hr", "value": 2, "unit": "µg/mL"}, {"measurement": "MIC", "setting": "Candida spp.; 24 h, C. albicans MMX 7055, Sensitive, incubation 24 hr", "value": 2, "unit": "µg/mL"}, {"measurement": "MIC", "setting": "Candida spp.; 24 h, C. glabrata MMX 7318, FLU^R, incubation 24 hr", "value": 0.25, "unit": "µg/mL"}, {"measurement": "MIC", "setting": "Candida spp.; 24 h, C. glabrata miX 7086, FLU^R, incubation 24 hr", "value": 0.5, "unit": "µg/mL"}, {"measurement": "MIC", "setting": "Candida spp.; 24 h, C. parapsilosis MMX 2323 (ATCC 22019), QC, incubation 24 hr", "value": 0.5, "unit": "µg/mL"}, {"measurement": "MIC", "setting": "Candida spp.; 24 h, C. tropicalis MMX 7247, FLU^R, incubation 24 hr", "value": 4, "unit": "µg/mL"}, {"measurement": "MIC", "setting": "Candida spp.; 24 h, C. tropicalis MMX 7248, FLU^R, incubation 24 hr", "value": 4, "unit": "µg/mL"}, {"measurement": "MIC", "setting": "Candida spp.; 24 h, C. tropicalis MMX 7360, FLU^R, incubation 24 hr", "value": 2, "unit": "µg/mL"}, {"measurement": "MIC", "setting": "Candida spp.; 48 h, C. albicans MMX 7039, Sensitive, incubation 48 hr", "value": 2, "unit": "µg/mL"}, {"measurement": "MIC", "setting": "Candida spp.; 48 h, C. albicans MMX 7055, Sensitive, incubation 48 hr", "value": 2, "unit": "µg/mL"}, {"measurement": "MIC", "setting": "Candida spp.; 48 h, C. glabrata MMX 7318, FLU^R, incubation 48 hr", "value": 0.5, "unit": "µg/mL"}, {"measurement": "MIC", "setting": "Candida spp.; 48 h, C. glabrata miX 7086, FLU^R, incubation 48 hr", "value": 1, "unit": "µg/mL"}, {"measurement": "MIC", "setting": "Candida spp.; 48 h, C. parapsilosis MMX 2323 (ATCC 22019), QC, incubation 48 hr", "value": 1, "unit": "µg/mL"}, {"measurement": "MIC", "setting": "Candida spp.; 48 h, C. parapsilosis MMX 7370, FLU^R, incubation 48 hr", "value": 0.5, "unit": "µg/mL"}, {"measurement": "MIC", "setting": "Candida spp.; 48 h, C. parapsilosis MMX 7555, FLU^R, incubation 48 hr", "value": 0.5, "unit": "µg/mL"}, {"measurement": "MIC", "setting": "Candida spp.; 48 h, C. tropicalis MMX 7247, FLU^R, incubation 48 hr", "value": 4, "unit": "µg/mL"}, {"measurement": "MIC", "setting": "Candida spp.; 48 h, C. tropicalis MMX 7248, FLU^R, incubation 48 hr", "value": 8, "unit": "µg/mL"}, {"measurement": "MIC", "setting": "Candida spp.; 48 h, C. tropicalis MMX 7360, FLU^R, incubation 48 hr", "value": 2, "unit": "µg/mL"}, {"measurement": "MIC", "setting": "[2]", "value": "0.5 to 2", "unit": "µg/mL"}]}, {"molecule": "C[C@@H](O)[C@H]1C(=O)N2C(C(=O)O)=C(S[C@@H]3CN[C@H](C(=O)N(C)C)C3)[C@H](C)[C@H]12", "note": "[MEM]", "values": [{"measurement": "MIC", "setting": "Klebsiella pneumoniae; K. pneumoniae ATCC BAA-1705, ATCC QC organism (Table 102)", "value": 8, "unit": "µg/mL"}, {"measurement": "MIC", "setting": "Klebsiella pneumoniae; K. pneumoniae ATCC BAA-1705, ESBL/KPC", "value": 8, "unit": "µg/mL"}, {"measurement": "MIC", "setting": "Klebsiella pneumoniae; K. pneumoniae CDC 112, KPC", "value": ">8", "unit": "µg/mL"}, {"measurement": "MIC", "setting": "Klebsiella pneumoniae; K. pneumoniae CDC 113, ESBL/KPC", "value": ">8", "unit": "µg/mL"}, {"measurement": "MIC", "setting": "Klebsiella pneumoniae; K. pneumoniae CDC 115, ESBL/KPC", "value": ">8", "unit": "µg/mL"}, {"measurement": "MIC", "setting": "Klebsiella pneumoniae; K. pneumoniae CDC 120, ESBL/KPC", "value": ">8", "unit": "µg/mL"}, {"measurement": "MIC", "setting": "Klebsiella pneumoniae; K. pneumoniae CDC 126, ESBL/KPC", "value": 4, "unit": "µg/mL"}, {"measurement": "MIC", "setting": "Klebsiella pneumoniae; K. pneumoniae CDC 129, ESBL/KPC", "value": 8, "unit": "µg/mL"}, {"measurement": "MIC", "setting": "Klebsiella pneumoniae; K. pneumoniae CDC 135, ESBL/VIM", "value": 1, "unit": "µg/mL"}, {"measurement": "MIC", "setting": "Klebsiella pneumoniae; K. pneumoniae CDC 138, ESBL/NDM", "value": ">8", "unit": "µg/mL"}, {"measurement": "MIC", "setting": "Klebsiella pneumoniae; K. pneumoniae CDC 158, ESBL/NDM/OXA", "value": ">8", "unit": "µg/mL"}, {"measurement": "MIC", "setting": "Klebsiella pneumoniae; K. pneumoniae MMX 9029, ESBL", "value": 0.015, "unit": "µg/mL"}, {"measurement": "CLSI Quality Control Range (MIC)", "setting": "[3]", "value": "(0.25-1)"}, {"measurement": "MIC", "setting": "P. aeruginosa; P. aeruginosa isolate 103, QC strain", "value": 1, "unit": "µg/mL"}, {"measurement": "MIC", "setting": "P. aeruginosa; P. aeruginosa isolate 1497 (TOB-R AMK-R, CIP-I, AZT-R, COL-R)", "value": 0.06, "unit": "µg/mL"}, {"measurement": "MIC", "setting": "P. aeruginosa; P. aeruginosa isolate 1530 (TOB-R, AMK-R, CIP-R)", "value": 0.5, "unit": "µg/mL"}, {"measurement": "MIC", "setting": "P. aeruginosa; P. aeruginosa isolate 1553 (TOB-R, AMK-R, CIP-R)", "value": 0.5, "unit": "µg/mL"}, {"measurement": "MIC", "setting": "P. aeruginosa; P. aeruginosa isolate 6322 (MEM-R, TOB-R, AMK-R, CIP-R, AZT-R)", "value": 16, "unit": "µg/mL"}, {"measurement": "MIC", "setting": "P. aeruginosa; P. aeruginosa isolate 6977 (MEM-I, TOB-R, CIP-R, AZT-I)", "value": 4, "unit": "µg/mL"}, {"measurement": "MIC", "setting": "P. aeruginosa; P. aeruginosa isolate 7745 (MEM-R, CIP-R, AZT-R)", "value": 16, "unit": "µg/mL"}, {"measurement": "MIC", "setting": "P. aeruginosa; P. aeruginosa isolate 7754 (MEM-R, TOB-R, CIP-R, AZT-I)", "value": 32, "unit": "µg/mL"}, {"measurement": "MIC", "setting": "P. aeruginosa; P. aeruginosa isolate 7762 (MEM-I, CIP-I)", "value": 4, "unit": "µg/mL"}, {"measurement": "MIC", "setting": "P. aeruginosa; P. aeruginosa isolate 7871 (MEM-R, AZT-I)", "value": 8, "unit": "µg/mL"}, {"measurement": "MIC", "setting": "P. aeruginosa; P. aeruginosa isolate 7874", "value": 1, "unit": "µg/mL"}, {"measurement": "MIC", "setting": "P. aeruginosa; P. aeruginosa isolate 7886 (MEM-R, CIP-R, AZT-R)", "value": 32, "unit": "µg/mL"}, {"measurement": "MIC", "setting": "P. aeruginosa; P. aeruginosa isolate 8797 (MEM-R, TOB-R, AMK-R, CIP-R, AZT-R, COL-R)", "value": 32, "unit": "µg/mL"}, {"measurement": "MIC", "setting": "P. aeruginosa; P. aeruginosa isolate 8798 (MEM-R, TOB-R, AMK-R, CIP-R, AZT-R, COL-R)", "value": 64, "unit": "µg/mL"}, {"measurement": "MIC", "setting": "P. aeruginosa; P. aeruginosa isolate 9108 (CIP-R, AZT-I)", "value": 0.5, "unit": "µg/mL"}, {"measurement": "MIC", "setting": "Pseudomonas aeruginosa; P. aeruginosa ATCC 27853, ATCC QC organism (Table 102)", "value": 0.25, "unit": "µg/mL"}, {"measurement": "MIC", "setting": "Pseudomonas aeruginosa; P. aeruginosa CDC 230, VIM/OXA", "value": ">8", "unit": "µg/mL"}, {"measurement": "MIC", "setting": "Pseudomonas aeruginosa; P. aeruginosa CDC 231, KPC/OXA", "value": ">8", "unit": "µg/mL"}, {"measurement": "MIC", "setting": "Pseudomonas aeruginosa; P. aeruginosa CDC 241, IMP/OXA", "value": ">8", "unit": "µg/mL"}, {"measurement": "MIC", "setting": "Pseudomonas aeruginosa; P. aeruginosa CDC 246, NDM/OXA", "value": ">8", "unit": "µg/mL"}, {"measurement": "MIC", "setting": "Pseudomonas aeruginosa; P. aeruginosa CDC 250, NDM/OXA", "value": ">8", "unit": "µg/mL"}, {"measurement": "MIC", "setting": "Pseudomonas aeruginosa; P. aeruginosa CDC 356, KPC", "value": ">8", "unit": "µg/mL"}, {"measurement": "MIC", "setting": "Pseudomonas aeruginosa; P. aeruginosa CDC 439, IMP", "value": ">8", "unit": "µg/mL"}, {"measurement": "MIC", "setting": "Pseudomonas aeruginosa; P. aeruginosa CDC 444, VIM", "value": ">8", "unit": "µg/mL"}, {"measurement": "MIC", "setting": "Pseudomonas aeruginosa; P. aeruginosa CDC 457, VIM", "value": ">8", "unit": "µg/mL"}, {"measurement": "MIC", "setting": "Pseudomonas aeruginosa; P. aeruginosa CDC 516, KPC/AmpC", "value": ">8", "unit": "µg/mL"}, {"measurement": "MIC", "setting": "Pseudomonas aeruginosa; P. aeruginosa CDC 518, KPC/AmpC", "value": ">8", "unit": "µg/mL"}]}]}
